Columns and labels:
[1] = tested on: HepG2 hepatoma cells; experiment: Cell proliferation assay HepG2 (CellTiter-Glo, 7 days); assay type: cell-based; conditions: Homo sapiens, 168 h; HepG2, 7 days, cell viability CellTiter-Glo 2.0
Description: (§1) HepG2 hepatoma cells (ATCC, HB-8065) were maintained in DMEM with high glucose (Lonza, 12-914F) supplemented with 10% fetal bovine serum (FBS; Biowest, S181B-500) and 2 mM L-glutamine (Biowest, X0551-100) at 37° C. and 5% CO2. A549 lung carcinoma cells (ATCC, CCL-185) were maintained in F-12K medium (ThermoFisher 21127030) supplemented with 10% FBS at 37° C. and 5% CO2. Exponentially growing HepG2 or A549 were plated in white, clear-bottom 96-well plates (Corning, 3903) at a cell density of 2000 (HepG2) or 350 (A549) cells per well in 199 μL of HepG2 medium. Next, 1 μL of a 5-fold 9-point dilution series of test compound in DMSO was added to the different wells. Cells were incubated at 37° C. 5% CO2 for 7 days. Cell viability was assessed on day 7 with the CellTiter-Glo 2.0 Cell Viability assay kit (Promega, G9243) to quantify the intracellular amounts of ATP: first, 100 μL of cell culture medium was removed from each well, next 100 μL of CellTiter-Glo® 2.0 Reagent was added and plates were shaken for 2 minutes on an orbital shaker. After 10 minutes stabilization at room temperature, read-out was performed on a ThermoFisher VarioSkan Lux plate reader. Counts were normalized to DMSO control (0% inhibition) and the cytotoxic control (100% inhibition) and EC50 values were determined in GraphPad Prism 8 using the [Agonist] vs. response—Variable slope (four parameters) function.
(§2) As shown by the data of Table 2, compounds of Formula (I) have activity in this assay. A value of ‘A’ in the table below indicates an EC50 of <20 nM, a value of ‘B’ indicates an EC50≥20 nM to <100 nM, a value of ‘C’ indicates an EC50 value of EC50≥100 nM to <1000 nM and a value of ‘D’ indicates an EC50≥1000 nM

[2] = tested on: A549 lung carcinoma cells; experiment: Cell proliferation assay A549 (CellTiter-Glo, 7 days); assay type: cell-based; conditions: Homo sapiens, A549, 168 h, A549, 7 days, cell viability CellTiter-Glo 2.0
Description: as §1, §2

[3] = biological target: T1, PRMT5/MEP50 (Homo sapiens, UniProt O14744); experiment: PRMT5/MEP50 enzyme inhibition assay, Assay 1 (radioisotope filter binding, 3H-SAM, histone H2A); assay type: biochemical; conditions: 1 μM 3H-SAM, 5 μM histone H2A, 60 min at 30° C.
Description: Compounds were tested for inhibition of methyltransferase activity in a radioisotope filter binding assay, similar to previously described in A selective inhibitor of PRMT5 with in vivo and in vitro potency in MCL models. Chan-Penebre et al., Nat Chem Biol. (2015) 11(6):432-7. In the standard PRMT5/MEP50 enzyme inhibition assay, compounds were tested in a 10-dose IC50 mode with 3- or 5-fold serial dilution, in singlet, starting at 1, 10, or 100 μM. Control compound, SAH (S-(5′-Adenosyl)-L-homocysteine), was tested in 10-dose IC50 mode with 3-fold serial dilution starting at 100 μM. Reactions were carried out at 1 μM 3H-SAM (PerkinElmer) and 5 μM histone H2A as substrates for methyl transfer. Following a 60 min incubation at 30° C., the reaction was stopped with 20% TCA. Each reaction was spotted on a filter plate (MultiScreen FB Filter plate, Millipore) and washed 5 times in PBS, after which scintillation fluid was added and signal was detected in a scintillation counter. Percent enzyme activity was calculated based on no inhibitor DMSO control as 100% activity. EC50 values were determined in GraphPad Prism 8 using the [inhibitor] vs. response—Variable slope (four parameters) function.
(§3) Compounds of Formula (I) show activity in this assay. A value of ‘A’ in the table below indicates an IC50 of <1 nM, a value of ‘B’ indicates an IC50≥1 nM to ≤100 nM, and a value of ‘C’ indicates an IC50 value of >100 nM.

[4] = biological target: T1, PRMT5/MEP50; experiment: PRMT5/MEP50 enzyme inhibition assay, Assay 2 (384-well, MALDI mass spectrometry, SAM, histone H4 1-21 peptide); assay type: biochemical; conditions: 1 μM SAM, 0.1 μM histone H4 1-21 peptide, 18-hour incubation at rt
Description: Compounds were tested for inhibition of methyltransferase activity in 384-well plate assay format using mass spectrometry technology. In this enzyme inhibition assay, compounds were tested in a 11-dose IC50 mode with 3-serial dilution, in duplicate, starting at 1, 10, or 100 μM. Reactions were carried out at 1 μM SAM and 0.1 μM histone H4 1-21 peptide as substrates for methyl transfer. Following an 18-hour incubation at rt, the reaction was stopped with 0.5% formic acid. Products of the reaction were captured while unreacted substrates were washed away, prior to MALDI mass spectrometry detection and analysis. Percent enzyme activity was calculated based on no inhibitor DMSO control as 100% activity. EC50 values were determined in GraphPad Prism 8 using the [inhibitor] vs. response—Variable slope (four parameters) function.
as §3

T1 sequence (O14744 whole entry): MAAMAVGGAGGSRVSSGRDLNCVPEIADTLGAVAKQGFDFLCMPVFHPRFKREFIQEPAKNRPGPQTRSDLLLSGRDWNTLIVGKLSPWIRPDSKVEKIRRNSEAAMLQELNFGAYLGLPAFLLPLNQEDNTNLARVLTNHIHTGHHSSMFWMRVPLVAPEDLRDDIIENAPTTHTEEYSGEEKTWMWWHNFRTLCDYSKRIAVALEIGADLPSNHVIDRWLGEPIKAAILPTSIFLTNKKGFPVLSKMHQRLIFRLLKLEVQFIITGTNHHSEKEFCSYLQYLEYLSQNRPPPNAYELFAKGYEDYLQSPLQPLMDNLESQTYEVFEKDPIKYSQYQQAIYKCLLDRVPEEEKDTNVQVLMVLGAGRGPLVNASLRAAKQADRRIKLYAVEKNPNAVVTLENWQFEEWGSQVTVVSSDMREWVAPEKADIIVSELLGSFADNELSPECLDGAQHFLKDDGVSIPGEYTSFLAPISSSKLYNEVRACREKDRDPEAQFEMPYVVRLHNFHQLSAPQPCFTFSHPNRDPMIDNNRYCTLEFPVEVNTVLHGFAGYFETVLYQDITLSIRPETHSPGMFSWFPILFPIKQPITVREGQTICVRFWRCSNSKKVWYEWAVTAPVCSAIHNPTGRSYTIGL
T1 sequence (Q9BQA1 whole entry partner): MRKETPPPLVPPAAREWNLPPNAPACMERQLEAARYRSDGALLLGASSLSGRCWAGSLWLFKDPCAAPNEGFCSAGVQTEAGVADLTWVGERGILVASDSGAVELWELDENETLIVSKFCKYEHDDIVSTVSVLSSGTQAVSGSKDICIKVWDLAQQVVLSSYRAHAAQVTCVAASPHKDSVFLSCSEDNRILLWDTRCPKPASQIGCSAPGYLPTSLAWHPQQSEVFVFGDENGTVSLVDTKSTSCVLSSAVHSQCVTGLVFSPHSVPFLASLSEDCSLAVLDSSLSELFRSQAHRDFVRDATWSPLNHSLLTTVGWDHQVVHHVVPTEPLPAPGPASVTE

EC50 [1] [nM]	EC50 [2] [nM]	IC50 [3] [nM]	IC50 [4] [nM]	SMILES
≥ 1000	≥ 1000			Nc1nc2cc(OC[C@@H]3[C@@H](O)[C@@H](O)[C@]4(n5ccc6c(N)ncnc65)C[C@@H]34)ccc2cc1Br (racemic) [Compound 17, rac-(2S,3R,4R,5S)-4-[(2-amino-3-bromo-7-quinolyl)oxymethyl]-1-(4-aminopyrrolo[2,3-d]pyrimidin-7-yl)bicyclo[3.1.0]hexane-2,3-diol]
		< 1	< 1	C[C@]1(CCc2ccc3cc(Br)c(N)nc3c2)C[C@@H](n2ccc3c(N)ncnc32)[C@H](O)[C@@H]1O [Compound 1]
< 20	< 20	< 1	< 1	Nc1nc2cc(CC[C@@]34C[C@@H]3[C@@H](n3ccc5c(N)ncnc53)[C@H](O)[C@@H]4O)ccc2cc1Br [Compound 2]
≥ 1000	≥ 1000		< 1	Cc1cnc2cc(OC[C@@]34C[C@@H]3[C@@H](n3ccc5c(N)ncnc53)[C@H](O)[C@@H]4O)ccn12 [Compound 16]
< 20	< 20		< 1	C[C@]1(CCc2ccc3cc(Cl)c(N)nc3c2)C[C@@H](n2ccc3c(N)ncnc32)[C@H](O)[C@@H]1O [Compound 18]
20 to 100	20 to 100		< 1	C[C@]1(CCc2ccc3cc(C#N)c(N)nc3c2)C[C@@H](n2ccc3c(N)ncnc32)[C@H](O)[C@@H]1O [Compound 27]
20 to 100	100 to 1000		< 1	C[C@]1(CCc2ccc3cc(Cl)c(N)nc3c2)C[C@@H](n2ccc3c(N)ncnc32)[C@H](O)[C@]1(C)O [Compound 28]
< 20	20 to 100		< 1	Cn1c(N)nc2cc(CC[C@@]3(C)C[C@@H](n4ccc5c(N)ncnc54)[C@H](O)[C@@H]3O)ccc2c1=O [Compound 29]
			< 1	C[C@]1(CCc2cc(F)c3cc(Cl)c(N)nc3c2)C[C@@H](n2ccc3c(N)ncc(F)c32)[C@H](O)[C@@H]1O [Compound 34, (1S,2R,3S,5R)-3-[2-(2-amino-3-chloro-5-fluoro-7-quinolyl)ethyl]-5-(4-amino-7-fluoro-pyrrolo[3,2-c]pyridin-1-yl)-3-methyl-cyclopentane-1,2-diol]
			< 1	Nc1ccc2ccc(CC[C@@]3(F)C[C@@H](n4ccc5c(N)ncnc54)[C@H](O)[C@@H]3O)cc2n1 [Compound 35, (1S,2S,3R,5R)-5-(4-amino-7H-pyrrolo[2,3-d]pyrimidin-7-yl)-3-(2-(2-aminoquinolin-7-yl)ethyl)-3-fluorocyclopentane-1,2-diol]
< 20	< 20		< 1	C[C@]1(CCc2cc(F)c3cc(Cl)c(N)nc3c2)C[C@@H](n2ccc3c(N)nc(Cl)nc32)[C@H](O)[C@@H]1O [Compound 53]
20 to 100	20 to 100		> 100	CCCCCOC(=O)Nc1ccc2ccc(CC[C@@]3(C)C[C@@H](c4ccc5c(N)ncnn45)[C@H](O)[C@@H]3O)cc2n1 [Compound 55]
< 20	< 20			COC[C@]1(CCc2ccc3cc(Br)c(N)nc3c2)C[C@@H](n2ccc3c(N)ncnc32)[C@H](O)[C@@H]1O [Compound 58]
	< 20			C#C[C@]1(CCc2ccc3cc(Br)c(N)nc3c2)C[C@@H](n2ccc3c(N)ncnc32)[C@H](O)[C@@H]1O [Compound 63]

More lines, now with the values behind:

SMILES	EC50 [1] [nM]	EC50 [2] [nM]	IC50 [3] [nM]	IC50 [4] [nM]
C=C1[C@@H](n2ccc3c(N)ncnc32)[C@H](O)[C@H](O)[C@H]1CCc1ccc2cc(Br)c(Cl)nc2c1 [Compound 3]	100 to 1000	100 to 1000	> 100	> 100
C=C1[C@@H](n2ccc3c(N)ncnc32)[C@H](O)[C@H](O)[C@H]1CCc1ccc2cc(Br)c(N)nc2c1 [Compound 4]	< 20	< 20	< 1	< 1
C[C@H]1[C@H](CCc2ccc3ccc(N)nc3c2)[C@@H](O)[C@@H](O)[C@@H]1n1ccc2c(N)ncnc21 [Compound 5]	100 to 1000	100 to 1000	< 1	< 1
C[C@@H]1[C@H](CCc2ccc3ccc(N)nc3c2)[C@@H](O)[C@@H](O)[C@@H]1n1ccc2c(N)ncnc21 [Compound 6]	≥ 1000	≥ 1000	1 to 100	1 to 100
C[C@]1(CCc2ccc3cc(C(F)F)c(N)nc3c2)C[C@@H](n2ccc3c(N)ncnc32)[C@H](O)[C@@H]1O [Compound 23]	< 20	< 20		< 1
C[C@]1(CCc2ccc3ccc(N)nc3n2)C[C@@H](n2ccc3c(N)ncnc32)[C@H](O)[C@@H]1O [Compound 24]	20 to 100	20 to 100		< 1
CC(C)C(=O)O[C@H]1[C@H](n2ccc3c(N)ncnc32)C[C@](C)(CCc2ccc3nc(N)ccc3c2)[C@H]1OC(=O)C(C)C [Compound 26-A]	≥ 1000	≥ 1000		> 100
C[C@]1(CCc2cc(F)c3ccc(N)nc3c2)C[C@@H](n2ccc3c(N)ncc(F)c32)[C@H](O)[C@@H]1O [Compound 42, (1S,2R,3S,5R)-3-(2-(2-amino-5-fluoroquinolin-7-yl)ethyl)-5-(4-amino-7-fluoro-1H-pyrrolo[3,2-c]pyridin-1-yl)-3-methylcyclopentane-1,2-diol]				< 1
C[C@]1(CCc2ccc3cc(Br)c(N)nc3c2)C[C@@H](n2ccc3c(N)ncc(F)c32)[C@H](O)[C@@H]1O [Compound 50]	< 20	< 20		< 1
C[C@]1(CCc2cc(F)c3cc(Cl)c(N)nc3c2)C[C@@H](c2ccc3c(N)ncnn23)[C@H](O)[C@@H]1O [Compound 57]	< 20	< 20		
C[C@]1(CCc2ccc3cc(Br)c(N)nc3c2)C[C@@H](c2ccc3c(N)ncnn23)[C@H](O)[C@@H]1O [Compound 59]	< 20	< 20		< 1
C=C[C@]1(CCc2ccc3cc(Br)c(N)nc3c2)C[C@@H](n2ccc3c(N)ncnc32)[C@H](O)[C@@H]1O [Compound 62]		< 20		
COC[C@]1(CCc2cc(F)c3cc(Cl)c(N)nc3c2)C[C@@H](c2ccc3c(N)ncnn23)[C@H](O)[C@@H]1O [Compound 64]		< 20		

Source: patent US20220112194A1, “COMPOUNDS TARGETING PRMT5” (ALIGOS THERAPEUTICS, INC., priority 2020, published 2022)
